{
  "source": "ChEMBL document CHEMBL5120867",
  "about": "“Hernandezine Regulates Proliferation and Autophagy-Induced Apoptosis in Melanoma Cells” (J Nat Prod, 2022)",
  "key": {"[1]": {"test_system": "B16", "assay": "Inhibition of autophagy in mouse B16 cells harbouring mCherry-EGFP-LC3 assessed as increase in proportion of autolysosomes at 6 uM for 8 to 24 hrs by laser scanning confocal microscopic analysis", "format": "functional, cell-based", "conditions": "time 8-24 hrs"}, "[2]": {"test_system": "A-375", "assay": "Induction of apoptosis in human A-375 cells assessed as early apoptotic cells at 8 uM after 24 hrs by Annexin-V-FITC/PI-staining based flow cytometry (reference value: 1.4 %)", "format": "functional"}, "[3]": {"test_system": "B16", "assay": "Induction of cell cycle arrest in mouse B16 cells assessed as accumulation at G0/G1 phase incubated for 24 hrs by PI staining based flow cytometry analysis (reference value: 56.59 %)", "format": "functional"}, "[4]": {"test_system": "B16", "assay": "Inhibition of autophagy in mouse B16 cells harbouring mCherry-EGFP-LC3 assessed as increase in number of autophagosomes at 6 uM for 8 to 24 hrs by laser scanning confocal microscopic analysis", "format": "functional, cell-based", "conditions": "time 8-24 hrs"}, "[5]": {"test_system": "B16", "assay": "Induction of apoptosis in mouse B16 cells assessed as chromatin condensation at 5 to 7 uM incubated for 24 hrs by Hoechst 33258 staining based fluorescence microscopy", "format": "functional, cell-based", "conditions": "dose 5-7 µM"}, "[6]": {"test_system": "A-375", "assay": "Cytotoxicity against human A-375 cells assessed as reduction in cell viability measured after 24 hrs by MTT assay", "format": "functional, cell-based", "conditions": "A-375, 24 h"}, "[7]": {"test_system": "B16", "assay": "Induction of apoptosis in mouse B16 cells assessed as nuclear membrane lysis at 5 to 7 uM incubated for 24 hrs by Hoechst 33258 staining based fluorescence microscopy", "format": "functional, cell-based", "conditions": "dose 5-7 µM"}, "[8]": {"test_system": "B16", "assay": "Inhibition of colony formation in mouse B16 cells assessed as reduction in number of colonies at 5 to 7 uM incubated for 24 hrs followed by replacement with fresh medium and measured after 14 days by crystal violet staining based analysis", "format": "functional, cell-based", "conditions": "dose 5-7 µM"}, "[9]": {"test_system": "A549", "assay": "Cytotoxicity against human A549 cells assessed as reduction in cell viability by MTT assay", "format": "functional, cell-based"}, "[10]": {"biological_target": "Tyrosine-protein kinase JAK2 (Homo sapiens) (UniProt O60674)", "sequence (O60674 whole entry)": "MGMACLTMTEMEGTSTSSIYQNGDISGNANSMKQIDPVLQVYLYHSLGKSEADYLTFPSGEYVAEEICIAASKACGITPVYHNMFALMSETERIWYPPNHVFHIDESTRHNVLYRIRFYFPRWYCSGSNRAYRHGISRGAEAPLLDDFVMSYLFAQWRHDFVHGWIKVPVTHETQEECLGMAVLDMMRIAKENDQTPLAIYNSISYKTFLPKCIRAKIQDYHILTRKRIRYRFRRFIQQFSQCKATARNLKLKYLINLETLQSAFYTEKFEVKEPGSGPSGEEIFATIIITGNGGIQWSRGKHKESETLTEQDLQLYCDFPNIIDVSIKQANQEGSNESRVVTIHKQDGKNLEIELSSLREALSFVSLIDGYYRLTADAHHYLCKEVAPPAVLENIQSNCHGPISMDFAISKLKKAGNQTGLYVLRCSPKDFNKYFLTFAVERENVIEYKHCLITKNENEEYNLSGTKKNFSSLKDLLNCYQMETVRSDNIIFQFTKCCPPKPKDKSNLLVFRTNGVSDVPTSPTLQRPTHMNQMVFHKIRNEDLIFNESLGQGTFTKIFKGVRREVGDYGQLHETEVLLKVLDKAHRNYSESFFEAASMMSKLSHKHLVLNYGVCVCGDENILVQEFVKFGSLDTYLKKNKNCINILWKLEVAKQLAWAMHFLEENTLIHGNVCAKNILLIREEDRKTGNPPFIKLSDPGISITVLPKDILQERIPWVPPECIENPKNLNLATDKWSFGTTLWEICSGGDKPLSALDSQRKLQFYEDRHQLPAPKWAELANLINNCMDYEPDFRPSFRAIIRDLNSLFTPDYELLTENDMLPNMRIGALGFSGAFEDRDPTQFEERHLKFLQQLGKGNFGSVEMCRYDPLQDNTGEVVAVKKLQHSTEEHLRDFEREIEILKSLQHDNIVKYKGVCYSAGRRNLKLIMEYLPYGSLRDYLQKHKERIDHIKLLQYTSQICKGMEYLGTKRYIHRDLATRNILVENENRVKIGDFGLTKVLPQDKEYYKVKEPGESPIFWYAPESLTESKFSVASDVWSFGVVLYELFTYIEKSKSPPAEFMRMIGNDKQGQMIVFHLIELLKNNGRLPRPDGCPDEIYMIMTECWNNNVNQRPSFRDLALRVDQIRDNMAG", "assay": "Inhibition of JAK2 phosphorylation in human A-375 cells assessed as decrease in phosphorylated JAK2 level at 6 to 8 uM measured after 12 to 24 hrs by Western blot analysis", "format": "cell-based", "conditions": "dose 6-8 µM, time 12-24 hrs"}, "[11]": {"test_system": "A-375", "assay": "Inhibition of autophagy in human A-375 cells harbouring mCherry-EGFP-LC3 assessed as increase in number of autophagosomes at 7 uM incubated for 8 to 24 hrs by laser scanning confocal microscopic analysis", "format": "functional, cell-based", "conditions": "time 8-24 hrs, TDE = time-dependent effect"}, "[12]": {"test_system": "A-375", "assay": "Induction of cell cycle arrest in human A-375 cells assessed as accumulation at G0/G1 phase at 7 uM incubated for 24 hrs by PI staining based flow cytometry analysis (reference value: 69.68 %)", "format": "functional"}, "[13]": {"test_system": "A-375", "assay": "Upregulation of p21 accumulation in human A-375 cells at 6 to 8 uM measured after 12 to 24 hrs by western blot assay", "format": "functional, cell-based", "conditions": "dose 6-8 µM, time 12-24 hrs"}, "[14]": {"test_system": "B16", "assay": "Induction of cell cycle arrest in mouse B16 cells assessed as accumulation at G2/M phase incubated for 24 hrs by PI staining based flow cytometry analysis (reference value: 0.88 %)", "format": "functional"}, "[15]": {"test_system": "B16", "assay": "Induction of cell cycle arrest in mouse B16 cells assessed as accumulation at S phase incubated for 24 hrs in presence of AG490 by PI staining based flow cytometry analysis (reference value: 42.53 %)", "format": "functional"}, "[16]": {"test_system": "B16", "assay": "Induction of apoptosis in mouse B16 cells assessed as late apoptotic cells at 7 uM measured after 24 hrs by Annexin-V-FITC/PI-staining based flow cytometry (reference value: 4.4 %)", "format": "functional"}, "[17]": {"test_system": "A-375", "assay": "Induction of apoptosis in human A-375 cells assessed as late apoptotic cells at 7 uM after 24 hrs by Annexin-V-FITC/PI-staining based flow cytometry (reference value: 5.7 %)", "format": "functional"}, "[18]": {"test_system": "A-375", "assay": "Induction of apoptosis in human A-375 cells assessed as late apoptotic cells preincubated for 2 hrs with 3-MA followed by compound addition and measured after 24 hrs by Annexin-V-FITC/PI-staining based flow cytometry (reference value: 5.7 %)", "format": "functional"}, "[19]": {"test_system": "B16", "assay": "Cytotoxicity against mouse B16 cells assessed as decrease in number of adherent cells at 5 to 7 uM incubated for 24 hrs by phase contrast microscope analysis", "format": "functional, cell-based", "conditions": "dose 5-7 µM"}, "[20]": {"test_system": "A-375", "assay": "Induction of cell cycle arrest in human A-375 cells assessed as accumulation at S phase at 6 uM incubated for 24 hrs by PI staining based flow cytometry analysis (reference value: 28.83 %)", "format": "functional"}, "[21]": {"test_system": "HepG2", "assay": "Cytotoxicity against human HepG2 cells assessed as reduction in cell viability by MTT assay", "format": "functional, cell-based"}, "[22]": {"test_system": "A-375", "assay": "Induction of apoptosis in human A-375 cells assessed as late apoptotic cells at 6 uM after 24 hrs by Annexin-V-FITC/PI-staining based flow cytometry (reference value: 5.7 %)", "format": "functional"}, "[23]": {"test_system": "B16", "assay": "Induction of cell cycle arrest in mouse B16 cells assessed as accumulation at G2/M phase at 5 uM incubated for 24 hrs by PI staining based flow cytometry analysis (reference value: 4.70 %)", "format": "functional"}, "[24]": {"test_system": "A-375", "assay": "Induction of cell cycle arrest in human A-375 cells assessed as accumulation at G0/G1 phase incubated for 24 hrs by PI staining based flow cytometry analysis (reference value: 56.69 %)", "format": "functional"}, "[25]": {"test_system": "A-375", "assay": "Inhibition of colony formation in human A-375 cells assessed as reduction in volume of colonies at 6 to 8 uM incubated for 24 hrs followed by replacement with fresh medium and measured after 14 days by crystal violet staining based analysis", "format": "functional, cell-based", "conditions": "dose 6-8 µM"}, "[26]": {"test_system": "A-375", "assay": "Inhibition of colony formation in human A-375 cells assessed as reduction in number of colonies at 6 to 8 uM incubated for 24 hrs followed by replacement with fresh medium and measured after 14 days by crystal violet staining based analysis", "format": "functional, cell-based", "conditions": "dose 6-8 µM"}, "[27]": {"biological_target": "Signal transducer and activator of transcription 3 (Homo sapiens) (UniProt P40763)", "sequence (P40763 whole entry)": "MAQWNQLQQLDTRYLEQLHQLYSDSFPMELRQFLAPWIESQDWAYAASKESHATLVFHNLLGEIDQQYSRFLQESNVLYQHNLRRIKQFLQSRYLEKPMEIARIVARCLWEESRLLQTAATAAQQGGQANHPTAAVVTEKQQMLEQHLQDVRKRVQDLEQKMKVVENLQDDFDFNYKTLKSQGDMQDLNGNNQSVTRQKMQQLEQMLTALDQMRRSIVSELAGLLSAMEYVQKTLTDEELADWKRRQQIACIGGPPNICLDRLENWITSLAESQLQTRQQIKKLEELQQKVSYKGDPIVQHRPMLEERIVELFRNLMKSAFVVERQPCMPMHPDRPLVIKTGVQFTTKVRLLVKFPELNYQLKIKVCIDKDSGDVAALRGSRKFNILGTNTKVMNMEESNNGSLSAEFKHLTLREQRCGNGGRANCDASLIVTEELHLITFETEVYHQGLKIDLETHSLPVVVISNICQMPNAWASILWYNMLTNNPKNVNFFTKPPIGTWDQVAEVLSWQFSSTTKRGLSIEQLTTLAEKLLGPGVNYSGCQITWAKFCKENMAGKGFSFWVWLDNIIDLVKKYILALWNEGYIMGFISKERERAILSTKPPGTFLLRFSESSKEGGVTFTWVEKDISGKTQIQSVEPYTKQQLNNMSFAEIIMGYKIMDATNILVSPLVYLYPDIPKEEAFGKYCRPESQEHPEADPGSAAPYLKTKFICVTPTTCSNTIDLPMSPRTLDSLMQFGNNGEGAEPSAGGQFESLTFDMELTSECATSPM", "assay": "Inhibition of STAT3 phosphorylation in human A-375 cells assessed as decrease in phosphorylated STAT3 level at 6 to 8 uM measured after 12 to 24 hrs by Western blot analysis", "format": "cell-based", "conditions": "dose 6-8 µM, time 12-24 hrs"}, "[28]": {"test_system": "Hep 3B2", "assay": "Cytotoxicity against human Hep3B cells assessed as reduction in cell viability by MTT assay", "format": "functional, cell-based"}, "[29]": {"test_system": "A-375", "assay": "Induction of apoptosis in human A-375 cells assessed as early apoptotic cells after 24 hrs by Annexin-V-FITC/PI-staining based flow cytometry (reference value: 3.1 %)", "format": "functional"}, "[30]": {"test_system": "A-375", "assay": "Inhibition of autophagy in human A-375 cells harbouring mCherry-egfp-LC3 assessed as increase in proportion of autolysosome at 7 uM incubated for 8 to 24 hrs by laser scanning confocal microscopic analysis", "format": "functional, cell-based", "conditions": "time 8-24 hrs, TDE = time-dependent effect"}, "[31]": {"test_system": "B16", "assay": "Induction of apoptosis in mouse B16 cells assessed as late apoptotic cells at 5 uM measured after 24 hrs by Annexin-V-FITC/PI-staining based flow cytometry (reference value: 4.4 %)", "format": "functional"}, "[32]": {"test_system": "A-375", "assay": "Induction of cell cycle arrest in human A-375 cells assessed as accumulation at G2/M phase incubated for 24 hrs in presence of AG490 inhibitor by PI staining based flow cytometry analysis (reference value: 8.87 %)", "format": "functional"}, "[33]": {"test_system": "A-375", "assay": "Induction of apoptosis in human A-375 cells assessed as early apoptotic cells preincubated for 2 hrs with […] followed by compound addition and measured after 24 hrs by Annexin-V-FITC/PI-staining based flow cytometry (reference value: 3.1 %)", "format": "functional"}, "[34]": {"test_system": "B16", "assay": "Induction of cell cycle arrest in mouse B16 cells assessed as accumulation at S phase at 5 uM incubated for 24 hrs by PI staining based flow cytometry analysis (reference value: 33.46 %)", "format": "functional"}},
  "note": "Calls of active or inactive are those of the source. The rule behind the calls is not given here.",
  "data": [
    {"smiles": "COc1ccc2cc1Oc1ccc(cc1)C[C@H]1c3cc(c(OC)cc3CCN1C)Oc1c(OC)c(OC)c(OC)c3c1[C@H](C2)N(C)CC3", "note": "[HERNANDEZINE]", "values": [
      {"measurement": "inhibition", "setting": "[1]", "result": "Active"},
      {"measurement": "Activity", "setting": "[2]", "result": 18.2, "unit": "%"},
      {"measurement": "Activity", "setting": "[3]", "result": 78.59, "unit": "%"},
      {"measurement": "inhibition", "setting": "[4]", "result": "Active"},
      {"measurement": "Activity", "setting": "[5]", "result": "Active"},
      {"measurement": "IC50", "setting": "[6]", "result": 7.2, "unit": "µM"},
      {"measurement": "Activity", "setting": "[7]", "result": "Active"},
      {"measurement": "inhibition", "setting": "[8]", "result": "Active"},
      {"measurement": "IC50", "setting": "[9]", "result": 7.59, "unit": "µM"},
      {"measurement": "inhibition", "setting": "[10]", "result": "Active"},
      {"measurement": "inhibition", "setting": "[11]", "result": "Tde"},
      {"measurement": "Activity", "setting": "[12]", "result": 76.87, "unit": "%"},
      {"measurement": "Activity", "setting": "[13]", "result": "Active"},
      {"measurement": "Activity", "setting": "[14]", "result": 8.78, "unit": "%"},
      {"measurement": "Activity", "setting": "[15]", "result": 6.92, "unit": "%"},
      {"measurement": "Activity", "setting": "[16]", "result": 25.8, "unit": "%"},
      {"measurement": "Activity", "setting": "[17]", "result": 47, "unit": "%"},
      {"measurement": "Activity", "setting": "[18]", "result": 27.1, "unit": "%"},
      {"measurement": "Activity", "setting": "[19]", "result": "Active"},
      {"measurement": "Activity", "setting": "[20]", "result": 22.28, "unit": "%"},
      {"measurement": "IC50", "setting": "[21]", "result": 7.42, "unit": "µM"},
      {"measurement": "Activity", "setting": "[22]", "result": 18.9, "unit": "%"},
      {"measurement": "Activity", "setting": "[23]", "result": 4.58, "unit": "%"},
      {"measurement": "Activity", "setting": "[24]", "result": 63.87, "unit": "%"},
      {"measurement": "inhibition", "setting": "[25]", "result": "Active"},
      {"measurement": "inhibition", "setting": "[26]", "result": "Active"},
      {"measurement": "inhibition", "setting": "[27]", "result": "Active"},
      {"measurement": "IC50", "setting": "[28]", "result": 6.71, "unit": "µM"},
      {"measurement": "Activity", "setting": "[29]", "result": 19.6, "unit": "%"},
      {"measurement": "inhibition", "setting": "[30]", "result": "Tde"},
      {"measurement": "Activity", "setting": "[31]", "result": 17.8, "unit": "%"},
      {"measurement": "Activity", "setting": "[32]", "result": 4.78, "unit": "%"},
      {"measurement": "Activity", "setting": "[33]", "result": 34.8, "unit": "%"},
      {"measurement": "Activity", "setting": "[34]", "result": 23.42, "unit": "%"}
    ]}
  ]
}
